Results on six molecules are retold here after patent US20230064983A1 (priority 2020, published 2023).

The test system of one experiment is PC9 cells. The experiment is described as follows: PC9 cell proliferation assay (EGFRex19del). The experiment is classed as cell-based. The settings on record: Homo sapiens, PC-9, 72 h, read-out: PC9 IC50. Here is the method:
Cellular Data Description (PC9 cells, EGFRex19del)
PC9 cells were purchased from Tokyo Medical College. 400 PC9 cells per well were seeded in growth medium (DMEM, 10% FCS) in a 384-well plate (CORNING #3571). Seed reference plate for time zero determination on the same day. All plates were incubated overnight at 37° C. After 24 hours, test compound were added in 7-step dilution using HP Compound printer and incubated at 37° C. for 72 h. After 3 days, 30 μL/well CTG solution (Promega Cell Titer Glo solution; catalog #G755B and G756B) were added to each well, incubated for 30 minutes and the plate were read on PheraStar. Proliferation is calculated after subtracting time zero luminescence values from day 4 values and comparing to untreated wells.
The IC50 values were determined using the four parameter fit.

Experiment [1] has as its target Ba/F3-EGFR-D770_N771insSVD C797S cells (Homo sapiens, UniProt P00533, DUP768-770/C797S, cells depend on it). In words: Ba/F3 cell survival assay, EGFR D770_N771insSVD C797S. It is filed as cell-based. The settings on record: aquired resistance space; Table 8; read-out: BA/F3 (EGFR 0770_N771 insSVD C797S) IC50.
The target in experiment [2] is Ba/F3-EGFR-L858R C797S cells (Homo sapiens, UniProt P00533, C797S/L858R, cells depend on it). In words: Ba/F3 cell survival assay, EGFR L858R C797S. It is filed as cell-based. The following applies: aquired resistance space; Table 8; read-out: BA/F3 (EGFR L858R C797S) IC50.
The target of a further experiment is Ba/F3-EGFR-WT cells (Homo sapiens, UniProt P00533). The experiment is described as follows: Ba/F3 cell survival assay, wild type EGFR. It is filed as cell-based. The settings on record: Cell Titer-Glo, 48 h, with 10 ng/mL EGF; Table 4; read-out: BA/F3 (wild type) IC50.
Experiment [3] deals with Ba/F3-EGFR-E746_A750del cells (Homo sapiens, UniProt P00533, DEL746-750, cells depend on it). In words: Ba/F3 cell survival assay, EGFR E746_A750del. The experiment is classed as cell-based. The following applies: classical activating and rare EGFR mutations; Table 7; read-out: BA/F3 (EGFR E746_A750del) IC50.
For experiment [4], the target named is T1, EGFR with insertion SVD between D770 and N771 (mutEGFR D770_N771insSVD) (Homo sapiens, UniProt P00533, DUP768-770).
T1 construct: amino acids R669 to A1210; made in house; host or cells: Sf9 insect cells (baculovirus)
The experiment is described as follows: Exon20-Mutant-EGFR(D770_N771insSVD) kinase assay (TR-FRET). It is filed as biochemical. The following applies: 2 mM ATP, Table 2.

The target of experiment [5] is Ba/F3-EGFR-H773_V774insNPH cells (Homo sapiens, UniProt P00533, DUP771-773, cells depend on it). The experiment is described as follows: Ba/F3 cell survival assay, EGFR H773_V774insNPH. It is filed as cell-based. The settings on record: EGFR Exon20 insertion mutations; Table 6; read-out: BA/F3 (EGFR H773_774insNPH) IC50.
Experiment [6] deals with Ba/F3-EGFR-V769_D770insASV cells (Homo sapiens, UniProt P00533, DUP767-769, cells depend on it). The experiment is described as follows: Ba/F3 cell survival assay, EGFR V769_D770insASV. The experiment is classed as cell-based. The following applies: EGFR Exon20 insertion mutations; Table 6; read-out: BA/F3 (ASV) IC50.
Experiment [7] concerns the target Ba/F3-ERBB2-A775_G776insYVMA cells (Homo sapiens, UniProt P04626, DUP772-775, cells depend on it). In words: Ba/F3 cell survival assay, ERBB2 A775_G776insYVMA. It is filed as cell-based. The following applies: Table 9; read-out: BA/F3 (ERBB2 A775_G776 insYVMA) IC50.
The next experiment addresses Ba/F3-EGFR L861Q cells (Homo sapiens, UniProt P00533, L861Q, cells depend on it). In words: Ba/F3 cell survival assay, EGFR L861Q. The experiment is classed as cell-based. The following applies: classical activating and rare EGFR mutations; Table 7; read-out: BA/F3 (EGFR L861Q) IC50.
The next experiment deals with T2, Bub1 (Homo sapiens, UniProt O43683).
T2 construct: catalytic domain of human Bub1 (amino acids 704-1085); His6 (N); made in house; host or cells: insect cells (Hi5)
In words: Bub1 high ATP kinase assay (TR-FRET). The settings on record: Bub1 high ATP (2 mM) IC50, TR-FRET, 2 mM ATP; Table 3. The experiment is classed as biochemical. The method, boiled down: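 Read-out was the 665/620 nm TR-FRET ratio after 1 h at 22 °C with EDTA stop mix (streptavidin-XL665, anti-phosphoserine antibody, Eu anti-mouse IgG). Beforehand, a biotinylated peptide was phosphorylated for 60 min at 22 °C under high ATP by His6-tagged human Bub1 residues 704-1085 expressed in Hi5 cells, about 200 ng/ml.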

Another experiment concerns the target Ba/F3-EGFR-L858R cells (Homo sapiens, UniProt P00533, L858R, cells depend on it). In words: Ba/F3 cell survival assay, EGFR L858R. The settings on record: classical activating and rare EGFR mutations; Table 7; read-out: BA/F3 (EGFR L858R) IC50. It is filed as cell-based.

The structures appear in SMILES notation. “And” between values parts separate entries of the source, which are not always exact repeats. Equal entries are not always repeated.

Chain of Ba/F3-EGFR-E746_A750del cells (P00533 with tags, fused parts or gaps DEL746-750): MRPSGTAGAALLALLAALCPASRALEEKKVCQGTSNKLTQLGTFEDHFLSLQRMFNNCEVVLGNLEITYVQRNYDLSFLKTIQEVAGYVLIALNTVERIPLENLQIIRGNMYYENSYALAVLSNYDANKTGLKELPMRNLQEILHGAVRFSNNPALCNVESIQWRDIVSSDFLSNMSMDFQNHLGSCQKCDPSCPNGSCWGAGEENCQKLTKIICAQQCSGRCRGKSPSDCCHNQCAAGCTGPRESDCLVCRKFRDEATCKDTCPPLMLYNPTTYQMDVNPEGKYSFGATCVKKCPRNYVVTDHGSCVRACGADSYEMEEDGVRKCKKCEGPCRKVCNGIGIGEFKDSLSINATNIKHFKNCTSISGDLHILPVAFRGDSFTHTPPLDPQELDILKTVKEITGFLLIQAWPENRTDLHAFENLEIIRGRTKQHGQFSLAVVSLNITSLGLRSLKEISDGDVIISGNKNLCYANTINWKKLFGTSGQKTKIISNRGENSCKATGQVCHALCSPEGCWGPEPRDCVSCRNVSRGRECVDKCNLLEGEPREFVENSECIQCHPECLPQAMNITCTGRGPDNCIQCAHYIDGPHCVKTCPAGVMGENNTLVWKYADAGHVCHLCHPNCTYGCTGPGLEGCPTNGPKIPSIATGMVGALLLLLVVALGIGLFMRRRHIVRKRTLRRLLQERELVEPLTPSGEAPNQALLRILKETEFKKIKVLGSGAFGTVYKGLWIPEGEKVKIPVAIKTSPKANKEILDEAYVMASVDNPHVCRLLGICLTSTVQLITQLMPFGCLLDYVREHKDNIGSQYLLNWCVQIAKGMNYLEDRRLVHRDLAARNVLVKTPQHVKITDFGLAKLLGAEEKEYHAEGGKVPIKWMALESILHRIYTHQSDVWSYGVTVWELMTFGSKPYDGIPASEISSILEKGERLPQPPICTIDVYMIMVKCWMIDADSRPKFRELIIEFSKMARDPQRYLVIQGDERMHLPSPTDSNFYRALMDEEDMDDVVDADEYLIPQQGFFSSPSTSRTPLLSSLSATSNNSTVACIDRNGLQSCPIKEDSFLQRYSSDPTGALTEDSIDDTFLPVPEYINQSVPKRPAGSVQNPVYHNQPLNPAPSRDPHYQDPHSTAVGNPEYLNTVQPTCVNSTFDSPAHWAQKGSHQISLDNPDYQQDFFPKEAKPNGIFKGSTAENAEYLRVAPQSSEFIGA
Chain of Ba/F3-EGFR-D770_N771insSVD C797S cells (P00533 with tags, fused parts or gaps DUP768-770/C797S): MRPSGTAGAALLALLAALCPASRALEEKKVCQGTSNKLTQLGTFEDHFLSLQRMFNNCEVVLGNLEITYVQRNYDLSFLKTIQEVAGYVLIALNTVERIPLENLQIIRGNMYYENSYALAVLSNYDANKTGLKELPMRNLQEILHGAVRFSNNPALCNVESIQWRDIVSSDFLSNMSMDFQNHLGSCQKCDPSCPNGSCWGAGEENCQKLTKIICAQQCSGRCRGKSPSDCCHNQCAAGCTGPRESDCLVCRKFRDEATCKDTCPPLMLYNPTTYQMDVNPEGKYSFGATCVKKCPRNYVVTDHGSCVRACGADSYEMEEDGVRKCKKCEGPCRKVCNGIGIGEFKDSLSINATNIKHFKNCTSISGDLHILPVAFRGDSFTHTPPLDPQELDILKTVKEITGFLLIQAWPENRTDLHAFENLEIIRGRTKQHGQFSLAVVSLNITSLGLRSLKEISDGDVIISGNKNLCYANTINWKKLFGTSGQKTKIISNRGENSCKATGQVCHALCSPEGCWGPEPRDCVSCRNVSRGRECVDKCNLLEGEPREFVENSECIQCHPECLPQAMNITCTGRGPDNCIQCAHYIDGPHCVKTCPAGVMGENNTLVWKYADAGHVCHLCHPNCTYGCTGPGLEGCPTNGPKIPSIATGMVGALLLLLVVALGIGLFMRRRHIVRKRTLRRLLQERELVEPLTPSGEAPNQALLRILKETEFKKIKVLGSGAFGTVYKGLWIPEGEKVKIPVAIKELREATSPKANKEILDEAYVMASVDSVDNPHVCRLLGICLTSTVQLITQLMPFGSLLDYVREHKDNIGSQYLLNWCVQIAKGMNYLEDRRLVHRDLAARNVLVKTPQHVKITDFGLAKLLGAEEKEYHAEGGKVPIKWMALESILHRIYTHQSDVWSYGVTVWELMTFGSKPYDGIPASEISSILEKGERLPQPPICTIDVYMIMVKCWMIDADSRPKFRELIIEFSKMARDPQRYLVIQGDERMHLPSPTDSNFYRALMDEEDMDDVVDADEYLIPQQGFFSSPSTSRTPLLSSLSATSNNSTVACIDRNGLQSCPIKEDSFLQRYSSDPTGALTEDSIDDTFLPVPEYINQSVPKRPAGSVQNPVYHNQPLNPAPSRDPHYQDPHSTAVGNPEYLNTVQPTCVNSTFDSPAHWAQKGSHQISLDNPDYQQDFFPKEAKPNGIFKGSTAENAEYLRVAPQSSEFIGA
Chain of Ba/F3-EGFR L861Q cells (P00533 whole entry L861Q): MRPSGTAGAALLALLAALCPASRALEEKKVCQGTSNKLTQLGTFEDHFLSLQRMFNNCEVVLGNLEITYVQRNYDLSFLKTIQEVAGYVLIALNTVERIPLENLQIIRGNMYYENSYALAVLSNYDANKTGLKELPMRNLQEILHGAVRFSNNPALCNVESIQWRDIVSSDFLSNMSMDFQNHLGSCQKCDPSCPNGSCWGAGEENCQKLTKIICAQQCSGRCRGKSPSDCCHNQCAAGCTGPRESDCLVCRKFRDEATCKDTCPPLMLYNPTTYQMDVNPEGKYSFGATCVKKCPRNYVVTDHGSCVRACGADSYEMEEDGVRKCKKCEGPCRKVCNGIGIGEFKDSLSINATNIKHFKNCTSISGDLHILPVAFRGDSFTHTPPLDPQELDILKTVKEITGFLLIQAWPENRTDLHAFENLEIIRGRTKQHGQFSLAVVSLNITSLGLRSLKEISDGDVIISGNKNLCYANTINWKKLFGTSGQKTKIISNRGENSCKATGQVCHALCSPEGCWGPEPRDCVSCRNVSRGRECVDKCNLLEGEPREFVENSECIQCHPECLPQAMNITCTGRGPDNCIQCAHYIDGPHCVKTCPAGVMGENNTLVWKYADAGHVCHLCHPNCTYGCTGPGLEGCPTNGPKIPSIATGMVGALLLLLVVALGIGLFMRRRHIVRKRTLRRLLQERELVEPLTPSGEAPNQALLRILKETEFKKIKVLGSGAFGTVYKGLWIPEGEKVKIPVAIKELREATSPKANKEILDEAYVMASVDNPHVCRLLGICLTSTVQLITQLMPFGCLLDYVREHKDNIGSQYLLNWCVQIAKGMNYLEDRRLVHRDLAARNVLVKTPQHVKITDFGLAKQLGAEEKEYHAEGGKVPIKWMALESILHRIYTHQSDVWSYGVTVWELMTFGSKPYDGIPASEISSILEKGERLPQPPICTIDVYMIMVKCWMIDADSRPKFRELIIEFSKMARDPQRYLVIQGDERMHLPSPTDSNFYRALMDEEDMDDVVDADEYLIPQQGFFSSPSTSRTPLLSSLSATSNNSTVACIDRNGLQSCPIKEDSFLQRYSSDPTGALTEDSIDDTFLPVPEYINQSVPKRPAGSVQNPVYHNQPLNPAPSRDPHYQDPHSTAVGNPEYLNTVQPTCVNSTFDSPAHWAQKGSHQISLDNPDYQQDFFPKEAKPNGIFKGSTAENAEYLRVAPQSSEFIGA
Chain of Ba/F3-EGFR-L858R C797S cells (P00533 whole entry C797S/L858R): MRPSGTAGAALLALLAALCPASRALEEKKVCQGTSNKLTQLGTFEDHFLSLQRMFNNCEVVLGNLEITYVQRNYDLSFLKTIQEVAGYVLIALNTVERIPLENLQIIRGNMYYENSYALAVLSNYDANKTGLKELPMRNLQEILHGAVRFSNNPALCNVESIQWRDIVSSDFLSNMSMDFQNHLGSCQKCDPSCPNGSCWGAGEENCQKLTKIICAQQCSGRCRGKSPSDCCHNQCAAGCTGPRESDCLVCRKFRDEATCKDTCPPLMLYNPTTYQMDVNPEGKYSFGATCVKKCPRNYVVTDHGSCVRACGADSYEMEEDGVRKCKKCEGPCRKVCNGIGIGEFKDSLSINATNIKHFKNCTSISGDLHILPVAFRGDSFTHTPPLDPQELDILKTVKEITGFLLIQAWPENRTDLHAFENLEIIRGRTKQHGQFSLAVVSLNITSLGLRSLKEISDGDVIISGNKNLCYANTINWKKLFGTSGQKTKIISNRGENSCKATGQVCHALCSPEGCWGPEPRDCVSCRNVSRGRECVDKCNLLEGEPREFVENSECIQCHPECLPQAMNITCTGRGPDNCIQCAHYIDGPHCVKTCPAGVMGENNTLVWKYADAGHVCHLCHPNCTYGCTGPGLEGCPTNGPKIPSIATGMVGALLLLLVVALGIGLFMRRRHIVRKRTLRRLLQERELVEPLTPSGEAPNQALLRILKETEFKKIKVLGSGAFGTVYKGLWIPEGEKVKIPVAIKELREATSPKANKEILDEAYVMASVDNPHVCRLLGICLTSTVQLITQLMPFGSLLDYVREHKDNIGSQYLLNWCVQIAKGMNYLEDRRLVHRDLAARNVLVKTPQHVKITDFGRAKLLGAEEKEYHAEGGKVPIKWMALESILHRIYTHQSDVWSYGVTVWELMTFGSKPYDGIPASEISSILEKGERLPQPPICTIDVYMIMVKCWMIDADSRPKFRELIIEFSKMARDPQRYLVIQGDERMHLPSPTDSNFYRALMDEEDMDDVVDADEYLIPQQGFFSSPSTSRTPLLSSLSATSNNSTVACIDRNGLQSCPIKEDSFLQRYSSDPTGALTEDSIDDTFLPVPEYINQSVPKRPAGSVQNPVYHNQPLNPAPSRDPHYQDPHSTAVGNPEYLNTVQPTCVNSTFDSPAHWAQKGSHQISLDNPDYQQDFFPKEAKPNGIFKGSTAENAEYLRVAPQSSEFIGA

Regarding `COc1c(Cl)cccc1Nc1c(-c2ccncc2OCC2COCCO2)[nH]c2c1C(=O)NCC2C` (single isomer, unassigned) [Example 34, 3-(3-chloro-2-methoxy-anilino)-2-[3-(1,4-dioxan-2-ylmethoxy)-4-pyridyl]-7-methyl-1,5,6,7-tetrahydropyrrolo[3,2-c]pyridin-4-one], the half-inhibitory concentration (IC50) with PC9 cells was 3.43 nM; on Bub1 it was > 20 µM. Moreover, the GI50 in experiment [1] is 35.5 nM; in [2] it was 3.07 nM; at Ba/F3-EGFR-WT cells it was 424 nM; in experiment [3] it was 1.19 nM; in [5], 165 nM; in experiment [6] it was 30.2 nM. The GI50 is 33.1 nM in [7], 31.8 nM at Ba/F3-EGFR L861Q cells and 2.76 nM on Ba/F3-EGFR-L858R cells. In addition, in [4], the “mutEGFR (D770_N771insSVD) kinase assay IC50” value (“mutEGFR” for short) turned out to be 175 pM.
Regarding `COCC(C)Oc1cnccc1-c1[nH]c2c(c1Nc1cccc(Cl)c1OC)C(=O)N[C@@H]1CCC[C@H]21` (single isomer, unassigned) [Example 51], the results for the IC50 with PC9 cells and at Bub1 were 1.74 nM and 7.09 µM, respectively. The GI50 in experiment [1] stood at 19.5 nM; in [2] it was 1.32 nM; at Ba/F3-EGFR-WT cells, 412 nM; in experiment [3], 1.05 nM; in experiment [5], 30.8 nM; in [6], 12.8 nM. Besides, the values for the GI50 (in experiment [7]; on Ba/F3-EGFR L861Q cells; on Ba/F3-EGFR-L858R cells) were 15.2 nM, 14.9 nM and 1.32 nM, respectively. In addition, the “mutEGFR” value in [4] came to 305 pM.
Turning to `Cc1c(Cl)cccc1Nc1c(-c2ccncc2OCC2COCCO2)[nH]c2c1C(=O)NCC2C` (single isomer, unassigned) [Example 67, 3-(3-chloro-2-methyl-anilino)-2-[3-(1,4-dioxan-2-ylmethoxy)-4-pyridyl]-7-methyl-1,5,6,7-tetrahydropyrrolo[3,2-c]pyridin-4-one], the IC50 in the experiment with PC9 cells was 4.09 nM; on Bub1 it was 10.1 µM. Besides, the GI50 came out at 40.6 nM in [1]; 2.49 nM in experiment [2]; 1150 nM at Ba/F3-EGFR-WT cells; 1.41 nM in [3]; 117 nM in [5]; 40.3 nM in [6]. In addition, the GI50 in experiment [7] came out at 29.2 nM; at Ba/F3-EGFR L861Q cells, 53.6 nM; on Ba/F3-EGFR-L858R cells, 3.16 nM. The “mutEGFR” value in experiment [4] was 252 pM.
In the case of `COc1c(Cl)cccc1Nc1c(-c2ccncc2OCCC2CCCCO2)[nH]c2c1C(=O)N[C@H](C)C2` (single isomer, unassigned) [Example 87], the IC50 with PC9 cells was 1.82 nM; against Bub1, 19.1 µM and > 20 µM. The GI50 in [1] worked out at 22.1 nM; in experiment [2] it was 1.38 nM; at Ba/F3-EGFR-WT cells, 421 nM; in experiment [3] it was 5 nM; in [5], 138 nM; in experiment [6], 13.2 nM. For the same molecule, the GI50 in [7] turned out to be 16.2 nM; on Ba/F3-EGFR L861Q cells, 33.4 nM; at Ba/F3-EGFR-L858R cells it was 1.29 nM. Besides, the “mutEGFR” value in [4] turned out to be 535 pM.
On to `COc1c(Cl)cccc1Nc1c(-c2ccncc2OCCC(C)OC)[nH]c2c1C(=O)N[C@H](C)C2` (single isomer, unassigned) [Example 121], for which the results for the IC50 in the experiment on PC9 cells and on Bub1 were 1.84 nM and 1.83 µM, respectively. Moreover, the GI50 came to 21.7 nM in [1]; 1.07 nM in experiment [2]; 267 nM on Ba/F3-EGFR-WT cells; 0.887 nM in experiment [3]; 49.2 nM in experiment [5]; 10.1 nM in experiment [6]. Also, the GI50 in [7] amounted to 12.8 nM; at Ba/F3-EGFR L861Q cells it was 11.2 nM; on Ba/F3-EGFR-L858R cells, 1.17 nM. Also, the “mutEGFR” value in [4] came out at 188 pM.
Turning to `COc1c(Cl)cccc1Nc1c(-c2ccncc2OC[C@@H]2CCCO2)[nH]c2c1C(=O)NC1(CC1)C2` [Example 113, 3′-(3-chloro-2-methoxyanilino)-2′-(3-{[(2S)-oxolan-2-yl]methoxy}pyridin-4-yl)-1′,7′-dihydrospiro[cyclopropane-1,6′-pyrrolo[3,2-c]pyridin]-4′(5′H)-one], the IC50 amounted to 6.46 nM with PC9 cells and 0.761 µM against Bub1. Also, the GI50 in experiment [1] was 71.4 nM; in [2], 5.07 nM; on Ba/F3-EGFR-WT cells, 849 nM; in [3], 0.989 nM; in experiment [5] it was 116 nM; in [6], 26 nM. Also, the GI50 in [7] turned out to be 22.2 nM; on Ba/F3-EGFR L861Q cells it was 45 nM; on Ba/F3-EGFR-L858R cells, 3.71 nM. Also, in experiment [4], the “mutEGFR” value turned out to be 201 pM.
